Consider 6 compounds from PMC7150796 (Viruses, 2020).

For data set [1], the system named is wt ZIKV Asian lineage (BeH819015, Brazil strain). The data set is described as follows: Plaque inhibition assay, wt ZIKV Asian lineage. Conditions: Vero B4 cells, 4 days.
Data set [2] deals with rZIKV-ZsGreen. Nature of the data set: microbe, parasite or virus in culture. Type of data set: cell-based, Zika virus. Conditions: 24 h; for EC50 / EC90: Zika virus, Vero; for EC50: read-out: Inhibition Efficacy EC50; for EC90: read-out: Inhibition Efficacy EC90; for Inhibition Efficacy EC50 / Inhibition Efficacy EC90: rZIKV-ZsGreen, Vero B4 cells, inhibition of ZsGreen expression, highest concentration 100 µM.

Data set [3] concerns JEV. Nature of the data set: Focus-forming assay, JEV. Type of data set: cell-based, Japanese encephalitis virus.
In data set [4] the test system is DENV2. The data set is described as follows: Focus-forming assay, DENV2. The format is cell-based, dengue virus type 2.
Data set [5] relates to WNV. Nature of the data set: Focus-forming assay, WNV. Type of data set: cell-based, West Nile virus.
A short description of data set [6]: in vitro. Particulars: African green monkey.
In data set [7] the test system is TBEV. The format is cell-based, tick-borne encephalitis virus. Conditions: MOI 0.1, Vero B4, 24 hpi.
The subject of data set [8] is YFV. Type of data set: cell-based, yellow fever virus. Conditions: MOI 0.1, Vero B4, 48 hpi.
In data set [9] the test system is ZIKV. The data set is described as follows: Focus-forming assay, ZIKV. The format is cell-based, Zika virus. Particulars: MOI 0.1, Vero B4, 24 hpi.
Data set [10] is described as follows: Resazurin cell viability (cell toxicity) assay. Particulars: African green monkey. Background: Alamar Blue is a resazurin reagent that responds to reducing activity.
In data set [11] the test system is ZIKV. Conditions: ref 40 (Lei Cai et al.); read-out: EC50 against ZIKV; cited from earlier work.
The test system of data set [12] is wt ZIKV African lineage (MR766, Uganda strain). Nature of the data set: Plaque inhibition assay, wt ZIKV African lineage. Type of data set: cell-based, Zika virus. Conditions: 2.5 µM, Vero B4 cells, 4 days.
In data set [13] the test system is rZIKV-ZsGreen. Nature of the data set: Time of drug addition assay.
Data set [14] has as its system two wt ZIKV lineages, Asian and African. Type of data set: cell-based, Zika virus. Conditions: 2.5 µM.

One may read the EC50 as the concentration at which the effect is half-maximal. For orientation: EC90 means the point of the concentration-response curve where the effect stands at 90%. One may read the viability as a read-out of living cells in per cent, often relative to untreated cells.

“Also recorded” adds a separate entry of the source. Read-outs that look alike come from different tables or passages of the source.

Turning to `NC(=O)c1ncn([C@@H]2O[C@H](CO)[C@@H](O)[C@H]2O)n1` [Ribavirin, reference compound], in data set [1] (ribavirin from 200 to 6.3 µM), the “plaque formation, dose-dependent” value was “only showed inhibition of plaque formation at 200 µM”. In addition, the EC50 in data set [2] was found to be 45.5 ± 13.5 µM. Besides, the EC90 in data set [2] came to 114 ± 18 µM. Further, the viral titer reduction result was “no significant activity” in [3]; 1.1 × 10^1 fold in data set [4]; “no significant activity” in data set [5]; 1.2 × 10^1 fold in [7] (ribavirin 50 µM); 0.9 × 10^1 fold in [8] (ribavirin 50 µM); 1.0 × 10^1 fold in data set [9] (ribavirin 50 µM). Besides, the viability at 24 h, 25 µM in data set [6] worked out at 96 ± 1%. In addition, in [6], the viability at 24 h, 50 µM came to 95 ± 2.8%. For the same compound, in data set [6], the viability at 24 h, 100 µM worked out at 93.5 ± 3.4%.
As to `NC(=O)c1nc(F)c[nH]c1=O` [Favipiravir, reference compound], in data set [10] (Vero B4 cells), the viability at 24 h, 25 µM came out at 97.4 ± 0.7%; the viability at 24 h, 50 µM is 95 ± 1.4%; the viability at 24 h, 100 µM was 97.9 ± 2.2%. Moreover, in [2], the “Inhibition Efficacy EC50” value is listed as “Not achieved” and the “Inhibition Efficacy EC90” value is listed as “Not achieved”. In addition, the “Inhibition Efficacy EC50” value in data set [2] (listed as favipiravir) is “no antiviral activity”. In addition, in data set [11], the EC50 was 111 ± 13.1 µM.
As to `O=C(Nc1ccccc1C(=O)Nc1ccccc1C(=O)O)c1ccccc1` [Benzavir-1, 2-{[2-(benzoylamino)benzoyl]amino}-benzoic acid], in [10], the viability at 24 h, 25 µM worked out at 98.8 ± 3.4%; the viability at 24 h, 50 µM came out at 88.3 ± 1.4%; the viability at 24 h, 100 µM was found to be 88.1 ± 2.1%. In [2], the EC50 was determined as 3 ± 0.1 µM and the EC90 came out at 3.3 ± 0.1 µM.
For the compound `CC(C)(C)C(=O)Nc1cc(F)c(F)cc1C(=O)Nc1ccccc1C(=O)O` [Compound 17d], in [10], the viability at 24 h, 25 µM was 105.1 ± 0.1%; the viability at 24 h, 50 µM was 106 ± 4.2%; the viability at 24 h, 100 µM was determined as 104.9 ± 0.9%. Further, in data set [2], the “Inhibition Efficacy EC50” value was “no antiviral activity; also recorded: Not achieved” and the “Inhibition Efficacy EC90” value is “Not achieved”.
For the compound `O=C(Nc1cc(F)c(F)cc1C(=O)Nc1ccccc1C(=O)O)c1ccccc1F` [Benzavir-2, 2-[4,5-Difluoro-2-(2-fluorobenzoylamino)-benzoylamino]benzoic acid], the “reduction of plaque formation” value in [12] amounted to 94%; in [1] (2.5 µM, Asian lineage), 88%. In addition, the viability at 24 h, 25 µM in data set [10] amounted to 100 ± 1.8%. Besides, the viability at 24 h, 50 µM in data set [10] is 96.8 ± 0.6%. For the same compound, the viability at 24 h, 100 µM in [10] came out at 94.3 ± 1.8%. The “plaque formation, dose-dependent” value in [1] (benzavir-2 from 20 to 0.6 µM) is on record as “significant reduction of plaque formation at all applied concentrations”. Besides, in data set [2], the EC50 was 0.8 ± 0.1 µM. Also, in [2], the EC90 was found to be 1.2 ± 0.3 µM. For the same compound, the viral titer reduction is 7.5 × 10^3 fold in data set [3]; 5.6 × 10^4 fold in data set [4]; 2.2 × 10^4 fold in data set [5]; 7.5 × 10^3 fold in [7] (benzavir-2 2.5 µM); 1.5 × 10^3 fold in data set [8] (benzavir-2 2.5 µM); 1.0 × 10^3 fold in [9] (benzavir-2 2.5 µM). The “inhibitory effect, time of addition” value in data set [13] (10 µM added at 2–4 h post-infection, read 24 h) is “most pronounced”; in data set [13] (10 µM, binding and entry steps (0–2 h), read 24 h), “less affected”; in data set [13] (10 µM, later time-points post-infection, read 24 h), “less inhibition”; in data set [13] (10 µM, pre-incubation prior to infection (−2 h), compared to 2–4 h), “much lower”. Moreover, the “CPE in cells infected with progeny virus from treated cells” value in [14] (day 2 post-progeny virus transfer) was “minor CPE”. Also, in [14] (day 4, crystal violet), the “plaque formation in cells infected with progeny virus from treated cells” value is given as “only a few visible plaques”.
Turning to `O=C(Nc1cc(Cl)ccc1C(=O)Nc1ccccc1C(=O)O)c1ccccc1F` [Compound 35f], in data set [10], the viability at 24 h, 25 µM stood at 105 ± 5%; the viability at 24 h, 50 µM was 96.5 ± 3.7%; the viability at 24 h, 100 µM is 92.1 ± 3.9%. In data set [2], the EC50 was found to be 6.1 ± 1.4 µM and the EC90 was 14.9 ± 0.9 µM.
